This is an account of results in paper PMC6222666, “Rutacecarpine Inhibits Angiogenesis by Targeting the VEGFR2 and VEGFR2-Mediated Akt/mTOR/p70s6k Signaling Pathway” (Molecules : A Journal of Synthetic Chemistry and Natural …, 2018).

The target of this experiment is T1, VEGFR2 (vascular endothelial growth factor receptor 2) (Homo sapiens, UniProt P35968).
T1 construct: gene KDR
Description: SPR (Biacore T200, VEGFR2 immobilized on CM5 chip); also ELISA-based kinase assay IC50 […]. It is filed as binding.

T1 sequence (P35968 20-1356): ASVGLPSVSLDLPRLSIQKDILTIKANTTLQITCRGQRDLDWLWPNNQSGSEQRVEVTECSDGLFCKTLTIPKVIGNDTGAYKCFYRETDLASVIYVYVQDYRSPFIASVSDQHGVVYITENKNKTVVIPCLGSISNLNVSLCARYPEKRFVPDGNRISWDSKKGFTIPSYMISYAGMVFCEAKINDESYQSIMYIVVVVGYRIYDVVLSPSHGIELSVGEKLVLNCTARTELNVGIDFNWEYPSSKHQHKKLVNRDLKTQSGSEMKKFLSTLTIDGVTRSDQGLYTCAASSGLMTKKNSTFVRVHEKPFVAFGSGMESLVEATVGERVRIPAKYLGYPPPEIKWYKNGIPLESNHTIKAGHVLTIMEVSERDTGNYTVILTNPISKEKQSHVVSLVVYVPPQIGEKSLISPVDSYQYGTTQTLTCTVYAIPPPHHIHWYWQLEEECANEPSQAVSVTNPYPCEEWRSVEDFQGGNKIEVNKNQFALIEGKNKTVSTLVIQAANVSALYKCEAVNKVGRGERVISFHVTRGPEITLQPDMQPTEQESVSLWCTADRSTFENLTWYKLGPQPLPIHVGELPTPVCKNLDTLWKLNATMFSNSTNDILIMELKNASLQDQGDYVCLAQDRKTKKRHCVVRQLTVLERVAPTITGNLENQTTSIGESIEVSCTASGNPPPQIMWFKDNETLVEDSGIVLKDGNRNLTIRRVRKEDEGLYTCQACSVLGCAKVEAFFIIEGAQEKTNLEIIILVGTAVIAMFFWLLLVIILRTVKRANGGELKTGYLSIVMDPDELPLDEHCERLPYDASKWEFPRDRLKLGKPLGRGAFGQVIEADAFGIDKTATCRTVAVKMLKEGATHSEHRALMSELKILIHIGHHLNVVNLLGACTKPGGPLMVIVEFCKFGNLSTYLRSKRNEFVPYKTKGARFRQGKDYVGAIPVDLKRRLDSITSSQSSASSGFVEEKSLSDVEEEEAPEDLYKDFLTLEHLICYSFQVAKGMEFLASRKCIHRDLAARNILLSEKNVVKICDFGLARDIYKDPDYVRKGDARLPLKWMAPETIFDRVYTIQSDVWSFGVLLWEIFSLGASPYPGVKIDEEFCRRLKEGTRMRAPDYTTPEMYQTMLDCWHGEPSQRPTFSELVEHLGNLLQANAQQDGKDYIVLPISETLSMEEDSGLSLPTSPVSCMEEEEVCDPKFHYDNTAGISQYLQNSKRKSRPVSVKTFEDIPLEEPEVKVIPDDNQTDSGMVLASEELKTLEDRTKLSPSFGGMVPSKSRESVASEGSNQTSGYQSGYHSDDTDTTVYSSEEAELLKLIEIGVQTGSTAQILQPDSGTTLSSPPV

With `O=c1c2ccccc2nc2n1CCc1c-2[nH]c2ccccc12` [rutaecarpine], the Kd turned out to be 0.471 µM.
